Results published in patent US5459160A, “Iridoid derivatives and the use thereof as a drug” (Tsumura & Co., priority 1990, dated 1995).

Assays:
[1] = tested on: hyperlipemia; assay: Anti-hyperlipemia test in rats on high fat food (Experimental Example 1); format: in vivo, Male Wistar rats; conditions: peroral once a day, two weeks, control 100, Table 1
Text: Male Wistar rats 6.5 weeks old were allowed to freely intake a high fat food (containing 1% of cholesterol, 0.5% of sodium cholate, 12% of beef tallow and 20% of standard chow) in the cource of two weeks, to thus cause an outbreak of hyperlipemia. The dose of the drug was started simultaneously with the application of the high fat food, and was perorally given once a day through a stomach tube until the end of the experiment. The drugs were all suspended in a cane sugar fatty acid ester and were administered. The oily compounds were adjusted in advance to 100 mg/m.iota. by diethyl ether. A suitable amount was collected at the time of the dose and after diethyl ether was evaporated and removed, it was suspended in a cane sugar fatty acid ester (1% ryoto sugar ester) and then given. After the final dose of the drug, the rats were fasted for about 18 hours, and the blood was sampled to measure the blood serum lipid. The blood serum lipid was measured by using a TBA-380 biochemical analyzer (a product of Toshiba Medical Co.,) unless a particular hindrance occurred.

[2] = tested on: hyperlipemia; assay: Anti-hyperlipemia test in rats on high fat food (Experimental Example 4); format: in vivo, Male Wistar rats; conditions: peroral once a day, two weeks, control 100, Table 5
Text: Male Wistar rats 6.5 weeks old were allowed to freely intake a high fat food (0.5% cholesterol, 1.0% cholic acid, 20.0% casein, 50.5% cane sugar, 12.0% hardened coconut oil, 4.0% cellulose, 4.0% mineral mixture, 0.5% vitamine mixture, 7.5% white fish meal) in the course of two weeks so as to cause the outbreak of hyperlipemia. The dose of the drug was started simultaneously with the application of the high fat food, and was perorally given once a day through a stomach tube until the end of the experiment. The drugs were all suspended in a cane sugar fatty acid ester and were administered. The oily compounds were adjusted in advance to 100 mg/m.iota. by diethyl ether. A suitable amount was collected at the time of the dose and after diethyl ether was evaporated and removed, it was suspended in a cane sugar fatty acid ester (1% ryoto sugar ester) and was then given. After the final dose of the drug, the rats were fasted for about 18 hours, and the blood was sampled to measure the blood serum lipid. The blood serum lipid was measured by using a TBA-380 bio-chemical analyzer (a product of Toshiba Medical Co.,) unless a particular hindrance occurred.

[3] = tested on: bile secretion; assay: Cholagogic action, bile secretion (Experimental Example 5); format: in vivo, male Wistar rats; conditions: intraduodenal
Method: After male Wistar rats 7 weeks old were fasted for 24 hours, they were anesthetized by the interperitoneal administration of 1.25 g/kg (volume 2 m.iota./kg) of urethane. A polyethylene canula (SP-10, a product of Natsume Seisakusho) was inserted into a bile duct and after the bile was caused to flow out for 30 minutes, the bile was collected in the cource of 1 hour. Thereafter, each test drug was suspended or dissolved in a 1% aqueous Tween-80 solution, and was administered into the duodenum at a rate of 5 m.iota./kg. Furthermore, the bile was collected every hour in the course of five hours, and its weight was measured. Only a 1% Tween-80 solution was given as a control.
The results are tabulated in Tables 6, 7, 8, 9 and 10, wherein the bile secretion amount every hour was represented by a percentage with the bile secretion amount (mg) one hour before the dose of the test drug being 100.

[4] = Acute toxicity test; conditions: mouse, in vivo, ip; male S.P.P. mice, abdominally administered; Table 11
Method: The acute toxicity test was carried out by abdominally administering each test drug to male S.P.P. mice and determining an LD50 value.

[5] = tested on: cholesterol synthesis in liver slices; assay: Cholesterol synthesis from [1-14C] acetic acid in liver slices (Experimental Example 2); format: cell-based, male Wistar rats; conditions: drug final concentration 0.1-1.0 mM, 37° C., 120 minutes; control 100; Table 2
Method: Liver slices (0.5 mm) were prepared from male Wistar rats 5 weeks old acclimated for 10 days in a bright/dark inversion raising chamber (bright period: 8:00 p.m.-8:00 a.m.). […] Incubation was carried out at 37° C. for 120 minutes in 95% oxygen and 5% carbon dioxide. The reaction was stopped by adding 1 m.iota. of 15% potassium hydroxide/ethanol, and saponification was carried out at 80° C. for 2 hours. The sterol fraction was extracted by petroleum ether and was evaporated to driness. Thereafter, 1 m.iota. of acetone/ethanol (1:1) and 1 m.iota. of 0.5% digitonine were added, and the mixture was left standing for a night at room temperature. The precipitate was collected by centrifugal separation and was washed with 2 m.iota. of acetone/ether (1:1). The precipitate was further centrifuged. After the supernatant was discarded, the precipitate was dissolved in methanol and its radioactivity was measured.

[6] = 0-1 hour after dose, control 84.1, Table 8
[7] = 1-2 hour after dose, control 72.5, Table 8
[8] = 2-3 hour after dose, control 63.8, Table 8
[9] = 3-4 hour after dose, control 56.7, Table 8
[10] = 4-5 hour after dose, control 51.2, Table 8
[11] = 0-1 hour after dose, control 82.9, Table 10
[12] = 1-2 hour after dose, control 74.1, Table 10
[13] = 2-3 hour after dose, control 66.1, Table 10
[14] = 3-4 hour after dose, control 59.8, Table 10
[15] = 4-5 hour after dose, control 53.3, Table 10

| Compound | Blood serum cholesterol (%) ([1]; 10 mg/kg) | Blood serum triglyceride (%) ([1]; 10 mg/kg) | Blood serum cholesterol (%) ([1]; 30 mg/kg) | Blood serum triglyceride (%) ([1]; 30 mg/kg) | Blood serum cholesterol (%) ([2]; 10 mg/kg) | Blood serum cholesterol (%) ([2]; 30 mg/kg) | Bile secretion amount, percentage of the hour before dose [3, 6] | Bile secretion amount, percentage of the hour before dose [3, 7] | Bile secretion amount, percentage of the hour before dose [3, 8] | Bile secretion amount, percentage of the hour before dose [3, 9] | Bile secretion amount, percentage of the hour before dose [3, 10] | LD50 [4] | Relative amount of synthesized cholesterol (%) [5] | Bile secretion amount, percentage of the hour before dose [3, 11] | Bile secretion amount, percentage of the hour before dose [3, 12] | Bile secretion amount, percentage of the hour before dose [3, 13] | Bile secretion amount, percentage of the hour before dose [3, 14] | Bile secretion amount, percentage of the hour before dose [3, 15] | also measured |
| --- | --- | --- | --- | --- | --- | --- | --- | --- | --- | --- | --- | --- | --- | --- | --- | --- | --- | --- | --- |
| COC(=O)C1=COC(O)[C@H]2[C@@H]1CC[C@@H]2C (stereo partly drawn) [Definite Example 4, methyl (4aS, 7S, 7aR)-1,4a, 5,6,7,7a-hexahydro-1-hydroxy-7-methylcyclopenta[c]pyran-4-carboxylate] | 73.3% | 86.0% | 75.4% | 91.0% | 85.3% | 75.0% | 150.8% | 93.7% | 74.0% | 63.9% | 57.2% |  |  |  |  |  |  |  | Bile secretion amount, percentage of the hour before dose ([3]; 0-1 hour after dose, control 82.9, Table 6): 146.9%; Bile secretion amount, percentage of the hour before dose ([3]; 1-2 hour after dose, control 74.1, Table 6): 97.8%; Bile secretion amount, percentage of the hour before dose ([3]; 2-3 hour after dose, control 66.1, Table 6): 85.4%; Bile secretion amount, percentage of the hour before dose ([3]; 3-4 hour after dose, control 59.8, Table 6): 77.2%; Bile secretion amount, percentage of the hour before dose ([3]; 4-5 hour after dose, control 53.3, Table 6): 71.8% |
| COC(=O)C1=COC(O)[C@@H]2C(C)=CC[C@H]12 (stereo partly drawn) [Definite Example 9, methyl (4aS, 7aS)-1,4a, 5,7a-tetrahydro-1-hydroxy-7-methylcyclopenta[c]pyran-4-carboxylate] | 93.6% | 74.5% | 59.3% | 60.0% | 70.8% | 62.8% | 134.5% | 90.9% | 76.5% | 66.7% | 59.4% | 407 mg/kg |  |  |  |  |  |  |  |
| CC(=O)O[C@@H]1OC=C(CO)[C@H]2CC=C(CO)[C@@H]12 [Definite Example 27, (1S, 4aS, 7aS)-1-acetoxy-4,7-bis(hydroxymethyl)-1,4a, 5,7a-tetrahydrocyclopenta[c]pyran] |  |  |  |  |  |  |  |  |  |  |  | 473 mg/kg | 73.5% | 98.3% | 75.3% | 59.0% | 48.7% | 43.5% |  |
| COC(=O)C1=CO[C@@H](OC(C)=O)[C@H]2[C@@H]1CC1OCC12OC(C)=O (stereo partly drawn) [Definite Example 30, methyl (iS, 4aS, 7aS)-1,7-diacetoxy-6,7-(epoxymethano)-1,4a, 5,6,7,7a-hexahydrocyclopenta[c]pyran-4-carboxylate] |  |  |  |  |  |  |  |  |  |  |  | 468 mg/kg | 50.1% | 97.9% | 83.1% | 69.7% | 61.0% | 53.9% |  |
| COC(=O)C1=COC(=O)[C@@H]2[C@H](C)CC[C@H]12 [Definite Example 32, methyl (4aS, 7R, 7aR)-1,4a, 5,6,7,7a-hexahydro-7-methyl-1-oxocyclopenta[c]pyran-4-carboxylate] |  |  |  |  |  |  |  |  |  |  |  |  | 96.2% | 110.7% | 80.6% | 66.2% | 55.6% | 49.6% |  |
